The text below walks through data of US20260070945A1, “MACROCYCLIC IMMUNOMODULATORS” (Bristol-Myers Squibb Company, priority 2022, published 2026).

*1 amine or outer side, *2 acyl side, *3 side chain or, on linkers, in order; H or OH if unused. Where a SMILES comes first, the peptide text is derived from it. Bridges are numbered along the chain shown (N, C = ends). [ ]: non-standard residue; d: D form. The star is where a group is joined. ξ: configuration not given here. Phe(4-CH2CH2COOH) = N[C@@H](Cc1ccc(CCC(=O)O)cc1)C(=O)O; Phe(3-CF3) = N[C@@H](Cc1cccc(C(F)(F)F)c1)C(=O)O; Ala(morpholin-4-yl) = N[C@@H](CN1CCOCC1)C(=O)O; Phe(4-COOH) = N[C@@H](Cc1ccc(C(=O)O)cc1)C(=O)O; Bip = N[C@@H](Cc1ccc(-c2ccccc2)cc1)C(=O)O; Phe(3-Me) = Cc1cccc(C[C@H](N)C(=O)O)c1; γGlu = O=C(O)[C@H](CCC(=O)[*:2])N[*:1]; NH(CH2)12COOH = O=C(O)CCCCCCCCCCCCN*; Val(3-OH) = CC(C)(O)[C@H](N)C(=O)O; aIle = CC[C@@H](C)[C@H](N)C(=O)O; 4Pal = N[C@@H](Cc1ccncc1)C(=O)O; 3Thi = N[C@@H](Cc1ccsc1)C(=O)O; Cha = N[C@@H](CC1CCCCC1)C(=O)O; Cit = NC(=O)NCCC[C@H](N)C(=O)O; Ile(3ξ) = CCC(C)[C@H](N)C(=O)O; Thr(3ξ) = CC(O)[C@H](N)C(=O)O; hSer = N[C@@H](CCO)C(=O)O; Carboxymethyl = O=C(O)C*; NMeA = CN[C@@H](C)C(=O)O; Orn = NCCC[C@H](N)C(=O)O; Aun = NCCCCCCCCCCC(=O)O; Dab = NCC[C@H](N)C(=O)O; AEEA = NCCOCCOCC(=O)O; Piv = CC(C)(C)C(=O)*

The target in one test is T1, PD-1/PD-L1 interaction (PE-labeled human PD-L1-Ig binding to Jurkat cell line over-expressing human PD-1) (Homo sapiens, UniProt Q15116).
T1 construct: expressed in transfected cells; host or cells: Jurkat
T1 sequence (Q15116 25-288): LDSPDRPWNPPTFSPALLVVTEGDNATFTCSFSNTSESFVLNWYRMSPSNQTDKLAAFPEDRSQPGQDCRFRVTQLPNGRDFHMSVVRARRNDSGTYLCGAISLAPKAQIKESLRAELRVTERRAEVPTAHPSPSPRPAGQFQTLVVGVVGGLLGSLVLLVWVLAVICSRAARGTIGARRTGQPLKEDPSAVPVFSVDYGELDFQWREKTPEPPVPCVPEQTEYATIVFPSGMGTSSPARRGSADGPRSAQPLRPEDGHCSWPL
Kind of test: Jurkat-PD-1 Cell Binding High-Content Screening Assay (CBA). Conditions: Jurkat-hPD-1 cells, PE-labeled PD-L1-Ig 20 nM final; read-out: Jurkat HPD1 PDL1 IC50. In outline: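 Read-out: high-content imaging of cell-bound PE fluorescence, with Hoechst 33342 nuclear counterstain after paraformaldehyde fixation. Before labeled ligand (20 nM final, 1 h) was added, compound sat on the cells for 2 h at 37 °C in DMEM/10% FCS.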
Take `Cc1cccc(C[C@@H]2NC(=O)[C@H](CC(=O)O)NC(=O)[C@H](Cc3ccc(OCC(=O)O)cc3)NC(=O)[C@H](CCCNC(=N)N)NC(=O)CSC[C@@H](C(=O)N[C@@H](CCN)C(=O)NCCCCCCCCCCC(=O)O)NC(=O)[C@H](CCO)NC(=O)[C@H](C(C)C)NC(=O)[C@H](CC3CCCCC3)NC(=O)[C@H](CCN)NC(=O)[C@@H](CC(C)C)NC(=O)[C@H](C)N(C)C(=O)[C@H](Cc3ccc(OCC(=O)O)cc3)NC(=O)[C@H](Cc3ccc(-c4ccccc4)cc3)NC(=O)[C@H](Cc3ccc(C(=O)O)cc3)NC2=O)c1` [Example 2350] ({CH2CO}-RY(Carboxymethyl)D[Phe(3-Me)][Phe(4-COOH)][Bip]Y(Carboxymethyl)[NMeA][dL][Dab][Cha]V[hSer]C[Dab][Aun]-OH; thioether N-14): the 50% inhibitory concentration (IC50) came out at 0.0056 µM.

For `CC(C)C[C@H]1NC(=O)[C@H](C)N(C)C(=O)[C@H](CCCNC(N)=O)NC(=O)[C@H](Cc2ccc(-c3ccccc3)cc2)NC(=O)[C@H](Cc2ccc(C(=O)O)cc2)NC(=O)[C@H](Cc2cccc(C(F)(F)F)c2)NC(=O)[C@H](CC(=O)O)NC(=O)[C@H](Cc2ccc(OCC(=O)O)cc2)NC(=O)[C@H](CN2CCOCC2)NC(=O)CSC[C@@H](C(=O)N[C@@H](CCN)C(=O)NCCCCCCCCCCCCC(=O)O)NC(=O)[C@H](Cc2c[nH]cn2)NC(=O)[C@H](C(C)(C)O)NC(=O)[C@H](CC2CCCCC2)NC(=O)[C@H](CCN)NC1=O` [Example 1193] ({CH2CO}-[Ala(morpholin-4-yl)]Y(Carboxymethyl)D[Phe(3-CF3)][Phe(4-COOH)][Bip][Cit][NMeA][dL][Dab][Cha][Val(3-OH)]HC[Dab]-{NH(CH2)12COOH}; thioether N-14), the IC50 was 0.0156 µM.

Take `CC(C)C[C@@H]1NC(=O)[C@H](Cc2c[nH]c3ccccc23)NC(=O)[C@H](CC(=O)O)NC(=O)[C@H](Cc2ccc(C(=O)O)cc2)NC(=O)[C@H](Cc2ccc(OCC(=O)O)cc2)NC(=O)CSC[C@@H](C(=O)N[C@@H](CCN)C(=O)NCCCCCCCCCCC(=O)O)NC(=O)[C@@H](CCC(N)=O)NC(=O)[C@H](C(C)C)NC(=O)[C@H](CC2CCCCC2)NC(=O)[C@H](CCN)NC(=O)[C@@H](CC(C)C)NC(=O)[C@H](C)N(C)C(=O)[C@H](C(C)C)NC(=O)[C@H](Cc2ccc(-c3ccccc3)cc2)NC1=O` [Example 1339] ({CH2CO}-Y(Carboxymethyl)[Phe(4-COOH)]DWL[Bip]V[NMeA][dL][Dab][Cha]V[dQ]C[Dab][Aun]-OH; thioether N-14): the IC50 stood at 0.028 µM.

For `Cc1cccc(C[C@@H]2NC(=O)[C@H](CC(=O)O)NC(=O)[C@H](Cc3ccc(CCC(=O)O)cc3)NC(=O)[C@H](CCNC(=O)C(C)(C)C)NC(=O)CSC[C@@H](C(=O)N[C@@H](CCN)C(=O)NCCCCCCCCCCC(=O)O)NC(=O)[C@H]([C@@H](C)O)NC(=O)[C@H](C(C)C)NC(=O)[C@H](CC3CCCCC3)NC(=O)[C@H](CCN)NC(=O)[C@@H](CC(C)C)NC(=O)[C@H](C)N(C)C(=O)[C@H](Cc3ccc(OCC(=O)O)cc3)NC(=O)[C@H](Cc3ccc(-c4ccccc4)cc3)NC(=O)[C@H](Cc3ccc(C(=O)O)cc3)NC2=O)c1` [Example 1269] ({CH2CO}-[Dab](Piv)[Phe(4-CH2CH2COOH)]D[Phe(3-Me)][Phe(4-COOH)][Bip]Y(Carboxymethyl)[NMeA][dL][Dab][Cha]VTC[Dab][Aun]-OH; thioether N-14), the IC50 was 0.0192 µM.

With `Cc1cccc(C[C@@H]2NC(=O)[C@H](CC(=O)O)NC(=O)[C@H](Cc3ccc(OCC(=O)O)cc3)NC(=O)[C@H]([C@@H](C)O)NC(=O)CSC[C@@H](C(=O)N[C@@H](CCN)C(=O)NCCOCCOCC(=O)NCCCCCCCCCCC(=O)O)NC(=O)[C@H](CCC(=O)O)NC(=O)[C@H](C(C)C)NC(=O)[C@H](CC3CCCCC3)NC(=O)[C@H](CC(N)=O)NC(=O)[C@@H](CC(C)C)NC(=O)[C@H](C)N(C)C(=O)[C@H](Cc3ccc(OCC(=O)O)cc3)NC(=O)[C@H](Cc3ccc(-c4ccccc4)cc3)NC(=O)[C@H](Cc3ccc(OCC(=O)O)cc3)NC2=O)c1` [Example 1364] ({CH2CO}-TY(Carboxymethyl)D[Phe(3-Me)]Y(Carboxymethyl)[Bip]Y(Carboxymethyl)[NMeA][dL]N[Cha]VEC[Dab][AEEA][Aun]-OH; thioether N-14), the IC50 was found to be 0.0495 µM.

For `CCC(C)[C@@H]1NC(=O)[C@H](Cc2ccc(-c3ccccc3)cc2)NC(=O)[C@H](CC(C)C)NC(=O)[C@H](Cc2c[nH]c3ccccc23)NC(=O)[C@H](CC(=O)O)NC(=O)[C@H](Cc2ccc(OCC(=O)O)cc2)NC(=O)[C@H](Cc2ccncc2)NC(=O)CSC[C@@H](C(=O)NCCOCCOCC(=O)N[C@@H](CCCN)C(=O)NCCCCCCCCCCC(=O)O)NC(=O)[C@H](CO)NC(=O)[C@H](C(C)C)NC(=O)[C@H](CC(C)C)NC(=O)[C@H](CC(N)=O)NC(=O)[C@@H](CC(C)C)NC(=O)[C@H](C)N(C)C1=O` (stereo partly drawn) [Example 2062] ({CH2CO}-[4Pal]Y(Carboxymethyl)DWL[Bip][Ile(3ξ)][NMeA][dL]NLVSC[AEEA][Orn][Aun]-OH; thioether N-14), the half-maximal inhibitory concentration (IC50) was found to be 0.0381 µM.

As for `CC(C)C[C@@H]1NC(=O)[C@H](Cc2c[nH]c3ccccc23)NC(=O)[C@H](CC(=O)O)NC(=O)[C@H](Cc2ccc(C(=O)O)cc2)NC(=O)[C@H](Cc2ccc(OCC(=O)O)cc2)NC(=O)CSC[C@@H](C(=O)NCCOCCOCC(=O)N[C@@H](CCN)C(=O)NCCCCCCCCCCC(=O)O)NC(=O)[C@H](CCCCN)NC(=O)[C@H](C(C)C)NC(=O)[C@H](CC2CCCCC2)NC(=O)[C@H](CCN)NC(=O)[C@@H](CC(C)C)NC(=O)[C@H](C)N(C)C(=O)[C@H](C(C)C)NC(=O)[C@H](Cc2ccc(-c3ccccc3)cc2)NC1=O` [Example 2155] ({CH2CO}-Y(Carboxymethyl)[Phe(4-COOH)]DWL[Bip]V[NMeA][dL][Dab][Cha]VKC[AEEA][Dab][Aun]-OH; thioether N-14), the IC50 was 0.0066 µM.

For `Cc1cccc(C[C@@H]2NC(=O)[C@H](CC(=O)O)NC(=O)[C@H](Cc3ccc(OCC(=O)O)cc3)NC(=O)[C@H]([C@@H](C)O)NC(=O)CSC[C@@H](C(=O)N[C@@H](CCCN)C(=O)NCCOCCOCC(=O)NCCCCCCCCCCC(=O)O)NC(=O)[C@H]([C@@H](C)O)NC(=O)[C@H](C(C)C)NC(=O)[C@H](CC3CCCCC3)NC(=O)[C@H](CC(N)=O)NC(=O)[C@@H](CC(C)C)NC(=O)[C@H](C)N(C)C(=O)[C@H](Cc3ccc(OCC(=O)O)cc3)NC(=O)[C@H](Cc3ccc(-c4ccccc4)cc3)NC(=O)[C@H](Cc3ccc(OCC(=O)O)cc3)NC2=O)c1` [Example 1365] ({CH2CO}-TY(Carboxymethyl)D[Phe(3-Me)]Y(Carboxymethyl)[Bip]Y(Carboxymethyl)[NMeA][dL]N[Cha]VTC[Orn][AEEA][Aun]-OH; thioether N-14), the IC50 stood at 0.0597 µM.

Consider `Cc1cccc(C[C@@H]2NC(=O)[C@H](CC(=O)O)NC(=O)[C@H](Cc3ccc(C(=O)O)cc3)NC(=O)[C@H](Cc3ccc(OCC(=O)O)cc3)NC(=O)CSC[C@@H](C(=O)N[C@H](CC(N)=O)C(=O)NCCCCCCCCCCC(=O)O)NC(=O)[C@H](C(C)O)NC(=O)[C@H](C(C)C)NC(=O)[C@H](CC3CCCCC3)NC(=O)[C@H](CCN)NC(=O)[C@@H](CC(C)C)NC(=O)[C@H](C)N(C)C(=O)[C@H](CCCNC(N)=O)NC(=O)[C@H](Cc3ccc(-c4ccccc4)cc3)NC(=O)[C@H](CC(C)C)NC2=O)c1` (stereo partly drawn) [Example 2327] ({CH2CO}-Y(Carboxymethyl)[Phe(4-COOH)]D[Phe(3-Me)]L[Bip][Cit][NMeA][dL][Dab][Cha]V[Thr(3ξ)]C[dN][Aun]-OH; thioether N-14), for which the IC50 was 0.013 µM.

In the case of `CC[C@@H](C)[C@@H]1NC(=O)[C@H](Cc2ccc(-c3ccccc3)cc2)NC(=O)[C@H](C(C)C)NC(=O)[C@H](Cc2c[nH]c3ccccc23)NC(=O)[C@H](CC(=O)O)NC(=O)[C@H](Cc2ccc(O)cc2)NC(=O)[C@H](CCCNC(N)=O)NC(=O)CSC[C@@H](C(=O)N[C@H](CC(N)=O)C(=O)NCCOCCOCC(=O)N[C@@H](CCC(=O)NCCOCCOCC(=O)N[C@@H](CCC(=O)NCCOCCOCC(=O)N[C@@H](CCCN)C(=O)NCCCCCCCCCCC(=O)O)C(=O)O)C(=O)O)NC(=O)[C@H](CO)NC(=O)[C@H](C(C)C)NC(=O)[C@H](CC2CCCCC2)NC(=O)[C@H](CC(N)=O)NC(=O)[C@@H](CC(C)C)NC(=O)[C@H](C)N(C)C1=O` [Example 2025] ({CH2CO}-[Cit]YDWV[Bip][aIle][NMeA][dL]N[Cha]VSC[dN][AEEA][γGlu][AEEA][γGlu][AEEA][Orn][Aun]-OH; thioether N-14), the IC50 came out at 0.0498 µM.

The same test, now with this note: PE-labeled PD-L1-Ig 20 nM final, Jurkat-hPD-1 cells; read-out: Jurkat HPD1 PDL1 IC50.
`Cc1cccc(C[C@@H]2NC(=O)[C@H](CC(=O)O)NC(=O)[C@H](Cc3ccc(C(=O)O)cc3)NC(=O)[C@H](Cc3ccsc3)NC(=O)CSC[C@@H](C(=O)N[C@@H](CCN)C(=O)NCCOCCOCC(=O)NCCCCCCCCCCC(=O)O)NC(=O)[C@H](CCC(=O)O)NC(=O)[C@H](C(C)(C)O)NC(=O)[C@H](CC3CCCCC3)NC(=O)[C@H](CCN)NC(=O)[C@@H](CC(C)C)NC(=O)[C@H](C)N(C)C(=O)[C@H](Cc3ccc(C(=O)O)cc3)NC(=O)[C@H](Cc3ccc(-c4ccccc4)cc3)NC(=O)[C@H](Cc3ccc(C(=O)O)cc3)NC2=O)c1` [Example 2506] ({CH2CO}-[3Thi][Phe(4-COOH)]D[Phe(3-Me)][Phe(4-COOH)][Bip][Phe(4-COOH)][NMeA][dL][Dab][Cha][Val(3-OH)]EC[Dab][AEEA][Aun]-OH; thioether N-14): the IC50 turned out to be 0.0103 µM.

Regarding `CC(C)C[C@@H]1NC(=O)[C@H](Cc2c[nH]c3ccccc23)NC(=O)[C@H](CC(=O)O)NC(=O)[C@H](Cc2ccc(OCC(=O)O)cc2)NC(=O)[C@H](C(C)O)NC(=O)CSC[C@@H](C(=O)NCCOCCOCC(=O)NCCCCCCCCCCC(=O)O)NC(=O)[C@H](C(C)O)NC(=O)[C@H](C(C)C)NC(=O)[C@H](CC2CCCCC2)NC(=O)[C@H](CCN)NC(=O)[C@@H](CC(C)C)NC(=O)[C@H](C)N(C)C(=O)[C@H](CCCNC(N)=O)NC(=O)[C@H](Cc2ccc(-c3ccccc3)cc2)NC1=O` (stereo partly drawn) [Example 2437] ({CH2CO}-[Thr(3ξ)]Y(Carboxymethyl)DWL[Bip][Cit][NMeA][dL][Dab][Cha]V[Thr(3ξ)]C[AEEA][Aun]-OH; thioether N-14), the IC50 was 0.0349 µM.
